Laboratory results published in patent US20260137662A1, “CD11B AGONISTS FOR TREATMENT OF AUTOIMMUNE DISEASE” (Rush University Medical Center, priority 2022, published 2026).

Key:
[1] = test system: RAW 264.7 murine macrophage cell line; experiment: suPAR and TNFa secretion from RAW 264.7 cells treated with LN patient sera (ELISA); type: cell-based; conditions: co-treatment LN sera (0.5%) and LA1 (20 uM), 4 hours, vs LN sera alone
Protocol: FIG. 1A illustrates levels of biomarker suPAR secretion from RAW 264.7 cells after 4 hours of treatment with cell culture medium (UT), LA1 (20 uM), LN patient sera (0.5%) in culture medium ([…]), or co-treatment with LN sera (0.5%) and LA1 (20 uM). […] FIG. 1B illustrates levels of biomarker TNFa secretion from RAW 264.7 cells after 4 hours of treatment with cell culture medium (UT), LA1 (20 uM), LN patient sera (0.5%) in culture medium ([…]), or co-treatment with LN sera (0.5%) and LA1 (20 uM). […] Myeloid cells from RAW 264.7 murine macrophage cell line were used to measure the concentration of pro-inflammatory biomarkers, soluble uPAR (suPAR) and TNFa, in the presence of lupus nephritis (LN) sera and LA1. The levels of pro-inflammatory biomarkers were measured in the supernatant of untreated cells, cells treated with LA1, cells treated with sera from patients with lupus nephritis (LN), and cells co-treated with LN sera and LA1. The concentrations of various pro-inflammatory biomarkers in cell supernatant were measured 4 hours after treatment using ELISA.

TLR signaling pathways = experiment: Relative gene expression in RAW cells treated with Poly(I:C); type: cell-based, murine; conditions: Poly(I:C) (0.1 ug/mL) and LA1 (20 uM) co-treatment, 4 hours
Protocol: FIG. 2C illustrates relative gene expression of biomarker uPAR in RAW cells after 4 hours of treatment with Poly(I:C) (0.1 ug/mL), LA1 (20 uM), and Poly(I:C) […] LA1 co-treatment.
FIG. 2D illustrates relative gene expression biomarker IL-1b in RAW cells after 4 hours of treatment with Poly(I:C) (0.1 ug/mL), LA1 (20 uM), or Poly(I:C) and LA1 co-treatment.
The effect of LA1 on TLR-stimulation dependent pro-inflammatory pathways was studied by stimulating myeloid cells with different TLR-stimulants (lipopolysaccharide (LPS), Pam2CSK 4, imiquimod (IMQ)) or with phorbol 12-myristate 13-acetate (PMA) and co-treating with LA1. The levels of suPAR (pg/mL) and TNFa (pg/mL) in cell supernatant were measured 4 hours after treatment using ELISA. […] Relative gene expression was also assessed in myeloid cells treated with Poly(I:C), a known toll-like receptor (TLR) agonist, and co-treated with LA1.

[2] = test system: BMDMs from C57BL/6 mice expressing CD11b with a point mutation (KI); experiment: Biomarker secretion from IMQ-treated bone marrow derived macrophages of CD11b KI mice; type: cell-based; conditions: KI cells (genetically activated CD11b), IMQ (20 ug/mL) and LA1 (20 uM) co-treatment, 4 hours
Protocol: (§1) FIG. 7A illustrates levels of biomarker IL-6 secretion in bone marrow derived macrophages (BMDMs) from C57BL/6 wild type (WT) mice, mice with global deletion of CD11b (KO), or C57BL/6 mice expressing CD11b with a point mutation (KI), the macrophages treated for 4 hours with vehicle DMSO (UT), LA1 (20 uM), IMQ (20 ug/mL), or IMQ and LA1 co-treatment. Bars show mean with SD (N=3) (*P<0.05, **P<0.01, ***P<0.001, ****P<0.0001).
as §1, with “7B” for “7A”, “IL-1b” for “IL-6”
as §1, with “7C” for “7A”, “suPAR” for “IL-6”
as §1, with “7D” for “7A”, “IFNb” for “IL-6”
Bone marrow derived macrophages (BMDMs) from C57BL/6 wild type mice (WT), mice with global deletion of CD11b (KO), and C57BL/6 mice expressing CD11b with a point mutation (KI), as described previously (Martinez et al., 2020) were used to evaluate the effect of pharmacologic activation of CD11b by LA1 or genetic activation of CD11b on TLR-pathway dependent biomarkers. BMDMs from WT, KO, and KI mice were left untreated, treated with LA1, treated with IMQ, or co-treated with LA1 and IMQ and levels of biomarkers IL-1b, suPAR, IL-6 and IFN-b were measured 4 hours after treatment.

[3] = test system: LPS-treated wild type C57BL/6 mice; experiment: Serum IL-6 in LPS-treated mice, oral LA1 dose response; type: in vivo; conditions: 4 hours
Protocol: FIG. 11 illustrates the concentration of biomarker IL-6 in wild type mice and wild type mice co-treated with various dose amounts of LPS and LA1 (0, 2, 10, 30, or 60 mg/kg). Each dot represents a unique sample. Bars show mean +/−SEM (n=4).
Administration of LPS to wild type C57BL/6 mice (WT) results in rapid elevation of pro-inflammatory mediators, such as IL-6, in murine sera. WT mice treated with LPS were used to study the dose-responsive efficacy of LA1 in reducing inflammatory cytokine levels in vivo. A single dose of LA 1 was orally administered to mice co-administered LPS. After 4 hours, sera was collected and used for ELISA.

## O=C(O)c1ccc(-c2ccc(/C=C3\SC(=S)N(Cc4ccccc4)C3=O)o2)cc1 [LA1, (Z)-4-(5-((3-benzyl-4-oxo-2-thioxothiazolidin-5-ylidene)methyl)furan-2-yl)benzoic acid]
[1]
  level of TNFa in cell supernatant: significantly reduced
  level of soluble uPAR (suPAR) in cell supernatant: significantly reduced
TLR signaling pathways
  relative gene expression of biomarker IL-1b: significantly reduced
  relative gene expression of biomarker uPAR: significantly reduced
[2]
  level of IFN-b in cell supernatant: did not change basal levels
  level of IL-1b in cell supernatant: did not change basal levels
  level of IL-6 in cell supernatant: did not change basal levels
  level of suPAR in cell supernatant: did not change basal levels
[3]; LA1 30 mg/kg oral
  serum IL-6 levels versus non-LPS injected WT control: no difference
[3]; LA1 60 mg/kg oral
  serum IL-6 levels versus non-LPS injected WT control: no difference
[3]; single oral dose of LA1 (2, 10, 30, 60 mg/kg) co-administered with LPS, dose dependent
  IL-6 levels in murine sera: significantly reduced
